The supplement of paper PMC5770543
± gives the standard deviation.

Legend:
[1] = system: Toxoplasma gondii RH tachyzoites; assay: % growth inhibition vs DMSO (48 h luciferase); higher = more inhibition; details: 10 µM
[2] = system: Plasmodium falciparum 3D7; assay: % inhibition of schizont-to-ring transition vs DMSO; higher = more inhibition
Outline: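 Schizont-to-ring transition inhibition compares new ring formation with that in vehicle controls. Synchronised P. falciparum schizonts (about 40–42 hours post-invasion, 1% parasitemia, 2.5% hematocrit, AlbuMAX-supplemented RPMI) were exposed to 1, 3 or 10 µM compound, after which rings were counted by Hoechst 33342 flow cytometry across three experiments.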

[3] = system: Plasmodium falciparum 3D7; assay: EC50 growth inhibition (60 h, SYBR Green); details: stage: ring-stage start
[4] = system: Toxoplasma gondii RH tachyzoites; assay: plaque count per well; higher = less inhibition; extreme values may be limits of the assay; details: 10 µM; 8-10 days
Procedure: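 T. gondii RH tachyzoites expressing firefly luciferase were grown in HFF monolayers for 48 h with compound. % growth inhibition at 10 µM and EC50 (2-fold dilutions from 10 µM) were read by luminescence relative to 1% DMSO; EC50 listed as 10 (not determined, <80% inhibition) is left out. Plaque assays: 50 tachyzoites per well with 10 µM compound for 8-10 days, giving plaque count and area by crystal violet/ImageJ. Egress: median time to egress after 1 µM A23187 ionophore following 24 h of 10 µM compound (DMSO ~1.8 min; >10 = no egress within 10 min).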
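Wherever % growth inhibition vs DMSO (48 h luciferase) is given: tested in triplicate wells of 96-well plates on confluent HFF monolayers, with 1% DMSO wells as negative control in four replicates.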

Structure (SMILES) | % growth inhibition [1] | % inhibition of schizont-to-ring transition ([2]; 1 µM) | % inhibition of schizont-to-ring transition ([2]; 3 µM) | % inhibition of schizont-to-ring transition ([2]; 10 µM) | EC50 growth inhibition [3] | plaque count per well [4]
CCN1CCN(Cc2ccc(NC(=O)c3cc4ccc5cccnc5c4[nH]3)cc2)CC1 | < 0% | 36.2% | 49.2% | 55.2% | 161 nM | 31
Cc1ccc(CSCc2ccc(C(=O)NC3CC3)o2)cc1 | 3.19 ± 5.5% | 14.1% | 44.2% | 67.4% | 1000 nM | 25
COc1ccc(CN2CCN(Cc3ccccc3)CC2)c(O)c1 | 11.2 ± 5.4% | 13.1% | 19.6% | 40.3% | 2170 nM | 29
CN1CCN(c2nc(Nc3ccc(O)cc3)nc3ccccc23)CC1 | < 0% | 34.7% | 33.4% | 52.2% | 1260 nM | 29
O=C(Nc1ccsc1C(=O)NC1CCCCC1)c1ccc(F)cc1 | < 0% | 4.95% | 8.54% | 14.8% |  | 20
CCc1c(C)c(=N)c2ccccc2n1C | < 0% | 5.96% | 11.3% | 33.6% | 3380 nM | 25
COc1ccc(C)c2sc(N(Cc3cccnc3)C(=O)c3ccc(C#N)cc3)nc12 | < 0% | 21.7% | 24.1% | 58.5% |  | 23
COc1ccc(-n2ccnc2SCC(=O)Nc2cc(C)ccc2C)c(OC)c1 | < 0% | 41.6% | 49.9% | 56.2% | 226 nM | 31
COc1cc(C(=O)Nc2nc3c(cc4c5c(cccc53)CC4)s2)cc(OC)c1OC | 4.43 ± 6.7% | 3.9% | 8.08% | 22.5% |  | 38
COc1nc(Nc2ccc(C(C)C)cc2)nc(OC)n1 | < 0% | 20.3% | 32.6% | 54.9% | 2540 nM | 30
c1ccc(-c2ccc(-c3nc4ccccc4[nH]3)cc2)cc1 | 12.3 ± 15% | 8.54% | 24.5% | 41% | 928 nM | 0
Cc1ccc(F)cc1NC(=O)c1cc(Cl)ccc1Nc1ccccc1 | < 0% | 54.4% | 70.7% | 81.9% | 1790 nM | 26
O=C(CCc1ccco1)NC1CCN(CC2(c3ccc(Cl)cc3)CCC2)CC1 | < 0% | 18.8% | 41% | 67.5% | 509 nM | 23
O=C(Nc1cccc(C2=NCCN2)c1)Nc1cccc(C2=NCCN2)c1 | 7.82 ± 3.2% | < 0% | 1.31% | 32.2% | 1840 nM | 38
Nc1ccn([C@@H]2O[C@H](CO)[C@@H](O)[C@H]2O)c(=O)n1 | < 0% | 35.8% | 40.5% | 42.6% |  | 29
Cc1ccc(C(=O)c2oc3ccc4c(C)cc(=O)oc4c3c2C)cc1 | < 0% | 6.95% | 10.6% | 20.4% |  | 24
CC(C)=CCN1CCC(C(=O)Nc2ccc(-c3nc4ccccc4[nH]3)cc2)CC1 | 19.7 ± 20% | 18% | 45.8% | 59.4% | 464 nM | 0
CCOc1cc2c(cc1OCC)C(c1cc(C)c(O)c(C)c1)NCC2 (stereo not drawn) | 14.9 ± 14% | 6.53% | 17.1% | 43.5% | 792 nM | 31
COc1ccc(NC(=O)C2c3ccccc3C(=O)N(CC(C)C)C2c2cccs2)cc1 (stereo not drawn) | < 0% | 78.1% | 78% | 76.6% | 46.9 nM | 27
COc1cccc(Nc2nc(N)c3ccccc3n2)c1 | < 0% | < 0% | 12.3% | 41.7% | 1320 nM | 0
Cc1cc(=O)oc2c1ccc1oc(C(=O)c3ccccc3)c(C)c12 | < 0% | 10.7% | 25.9% | 45.3% | 1870 nM | 28
OCCNc1nc(Nc2ccc(Cl)c(Cl)c2)nc2ccccc12 | < 0% | 51% | 66.3% | 68.9% | 180 nM | 0

Structure (SMILES) | % growth inhibition [1] | % inhibition of schizont-to-ring transition ([2]; 1 µM) | % inhibition of schizont-to-ring transition ([2]; 3 µM) | % inhibition of schizont-to-ring transition ([2]; 10 µM) | EC50 growth inhibition [3] | plaque count per well [4]
CCn1c(CN2CCN(Cc3ccccc3)CC2)nc2cc(NC(=O)c3cccs3)ccc21 | < 0% | 40.6% | 47.9% | 56% | 615 nM | 0
CCCCCCc1cc2cc(-c3nc4ccccc4[nH]3)c(=Nc3ccccc3C)oc2cc1O | < 0% | 9.35% | 11.5% | 23.5% |  | 3
COc1ccc(CN2CCCC(C(=O)c3ccc(C(F)(F)F)cc3)C2)c(O)c1 (stereo not drawn) | < 0% | 9.13% | 32% | 51.1% | 912 nM | 20
COc1ccccc1N1CCN(C(CNS(=O)(=O)c2ccc(Cl)cc2)c2cccnc2)CC1 (stereo not drawn) | 4.77 ± 8.3% | 16% | 20.5% | 49.3% | 2260 nM | 34
CCc1ccc(Nc2cc(C)nc3nc(C)nn23)cc1 | < 0% | 7.01% | 30% | 50.7% | 2280 nM | 27
Cc1cccc(Nc2nc(N)c3ccccc3n2)c1 | < 0% | 3.41% | 36.1% | 54.2% | 669 nM | 0
Clc1ccc2[nH]c3c(NCCCN4CCOCC4)ncnc3c2c1 | < 0% | 40.9% | 53.1% | 56.3% | 189 nM | 23
COc1ccc(CCNC(=O)c2cc(S(=O)(=O)N3CC(C)CC(C)C3)ccc2Sc2ccc(F)cc2)cc1OC (stereo not drawn) | 11.7 ± 10% | 11.3% | 12.5% | 22.9% |  | 28
Cc1ccc(-c2cc(C(=O)Nc3ccc(S(=O)(=O)N4CCCCC4)cc3)[nH]n2)c(O)c1 | < 0% | 28.1% | 58.9% | 67.5% | 9180 nM | 18
O=C(O)C1Cc2c([nH]c3ccccc23)C(c2ccc(Cl)cc2Cl)N1 (stereo not drawn) | < 0% | 8.54% | 18.6% | 26.4% | 1300 nM | 32
CCCCc1c(C)nc2c(OC)cccc2c1O | 9.6 ± 15% | 41.9% | 45.3% | 49.4% | 2640 nM | 0
O=[N+]([O-])c1ccc(C=NNc2nc3ccccc3[nH]2)cc1 | < 0% | 29% | 43.8% | 49% | 663 nM | 33
COc1ccc(C2C(C(=O)Nc3cccc(OC)c3)c3ccccc3C(=O)N2C2CCCCC2)cc1 (stereo not drawn) | 13.5 ± 15% | 12.8% | 71.3% | 76.4% |  | 0
O=C1c2ccccc2-c2nnc(-c3ccc(Br)cc3)cc21 | < 0% | 5.35% | 17.7% | 32.6% |  | 24
CC1CCN(Cc2c(O)ccc3cc(-c4nc5ccccc5s4)c(=O)oc23)CC1 | 18.7 ± 17% | 6.51% | 20.3% | 38.2% |  | 0
COc1ccc(CNC2CCN(c3ccc(NC(=O)c4cccc(Cl)c4)cc3)CC2)cc1OC | 3.03 ± 5.2% | < 0% | 28.3% | 38.6% | 492 nM | 0
CCN(CC)S(=O)(=O)c1ccc(-c2csc(Nc3ccc(C)c(C)c3)n2)cc1 | 71.8 ± 4.9% | 5.05% | 6.93% | 26.5% |  | 26
COc1ccc(C2N(C)c3ccccc3N2C)cc1 | 15.2 ± 13% | < 0% | < 0% | 11.8% |  | 28
CCOC(=O)C1=C(C)N=c2sc(=Cc3ccccc3O)c(=O)n2C1c1ccc(OC)c2ccccc12 (stereo not drawn) | 4.31 ± 0.81% | 13.3% | 53.1% | 60.5% |  | 18
CCOc1ccccc1NC(=O)CN1CCN(C(=O)c2ccco2)CC1 | < 0% | 43.4% | 49.8% | 60% |  | 35
Cc1cc(NC(=O)c2cccc(C(F)(F)F)c2)n(-c2nc(-c3ccc4c(c3)OCO4)cs2)n1 | < 0% | 13.2% | 16.2% | 18.9% |  | 26
Cc1ccc(-c2nc3ccccc3o2)cc1NCc1cc(Cc2ccccc2)ccc1O | < 0% | 36.5% | 47.5% | 56.6% |  | 36

Structure (SMILES) | % growth inhibition [1] | % inhibition of schizont-to-ring transition ([2]; 1 µM) | % inhibition of schizont-to-ring transition ([2]; 3 µM) | % inhibition of schizont-to-ring transition ([2]; 10 µM) | EC50 growth inhibition [3] | plaque count per well [4]
CN(C)c1ccc(N=Cc2ccc(N3CCOCC3)cc2)cc1 | < 0% | 17.3% | 20% | 24% |  | 22
CCCCCCOC(=O)C1=C(C)NC(=O)NC1c1ccccc1F (stereo not drawn) | < 0% | 32.7% | 32.8% | 40.9% |  | 31
COc1ccc(CCN2C(=O)c3[nH]nc(-c4cc(Cl)c(C)cc4O)c3C2c2ccccc2F)cc1 (stereo not drawn) | < 0% | 20% | 20.6% | 46.1% |  | 0
O=C(NC1CCN(Cc2ccccc2)CC1)c1cc2nc(-c3ccc(Cl)s3)cc(C(F)(F)F)n2n1 | < 0% | 13.4% | 13.8% | 27.3% |  | 22
CC(C)(C)c1ccc(C(=O)Nc2nc3ccccc3s2)cc1 | 12.1 ± 13% | 44.3% | 45.2% | 54.4% |  | 33
CC(C)CNC(=O)c1c(N)n(CCc2ccccc2F)c2nc3ccccc3nc12 | < 0% | < 0% | < 0% | 15% |  | 28
Oc1ccc(C(=C(Cl)Cl)c2ccc(O)cc2)cc1 | 78.3 ± 3.7% | 11.4% | 53.3% | 73.2% | 877 nM | 
CCOc1ccc2c(c1)CN(Cc1ccc(Cl)cc1)CO2 | 24.6 ± 13% | < 0% | 11.2% | 31.5% | 3960 nM | 
COc1cc(SC)ccc1C(=O)N1CCCC(C)C1 (stereo not drawn) | 33.1 ± 4.9% | 0.295% | < 0% | 12.1% | 3240 nM | 
CCCn1c(=N)c(C(=O)NC2CCCCC2)cc2c(=O)n3cccc(C)c3nc21 | 71.06 ± 0.62% | 1.41% | 20.4% | 53.1% | 3810 nM | 
Oc1c(CN2CCN(c3ccccc3F)CC2)cc(Br)c2cccnc12 | 74.2 ± 13% | 7.79% | 26.8% | 49.7% | 7420 nM | 
Cc1ccc(Cn2c(N3CCC(C(=O)NCc4cccs4)CC3)nc3ccccc32)cc1 | 66.1 ± 3.6% | 47.3% | 68% | 69.8% | 744 nM | 
Cc1ccc(C)c(Cn2c(N3CCC(C(=O)NCc4cccs4)CC3)nc3ccccc32)c1 | 79.1 ± 1.9% | 18.6% | 69.7% | 68.4% | 6140 nM | 
Cc1ccc(N2C3c4ccccc4N(S(=O)(=O)c4ccc(C)cc4)C2c2ccccc2N3S(=O)(=O)c2ccc(C)cc2)cc1 | 19.1 ± 3% | < 0% | 5.25% | 18.3% |  | 0
CCOC(=O)c1cnc2ccc(OC)cc2c1Nc1ccc(N2CCN(C)CC2)cc1 | 24.9 ± 43% | 46.5% | 63.7% | 78.1% | 2980 nM | 
O=C(NNc1cc(N2CCCC2)nc(N2CCCC2)n1)c1ccccc1 | 27.4 ± 0.88% | 16.2% | 24.6% | 62.1% | 6540 nM | 
COc1ccc(C(C)=O)cc1N1C(=O)C2C(C1=O)C1(c3ccccc3)C(=O)C2(c2ccccc2)C(c2ccc(C)cc2)=C1c1ccc(C)cc1 (stereo not drawn) | 79.2 ± 1.3% | 7.25% | 20.5% | 44.9% | 273 nM | 
CCOC(=O)c1cnc2c(C)cc(C)cc2c1Nc1ccc(OC)c(OC)c1 | 54.2 ± 2.2% | 14.7% | 32.9% | 45.1% | 6690 nM | 
COc1ccc(/C=C2/SC(=Nc3ccccc3)NC2=O)cc1 | 22.4 ± 12% | 10.4% | 23% | 53% | 9090 nM | 
OC1CCCCC1C1(NC(=S)Nc2ccccc2)CCCCC1 (stereo not drawn) | 64 ± 2.9% | 23.3% | 45.7% | 53.4% | 1510 nM | 
COc1ccc(-c2cn3c(C(=O)Nc4ccccc4Cl)c(-c4ccccc4)c4c3n2CCCC4)cc1 | 42.7 ± 28% | 12.5% | 30.4% | 62.3% | 7130 nM | 
